Source: patent US9695154B2, “Heteroaryl inhibitors of sumo activating enzyme” (MILLENNIUM PHARMACEUTICALS, INC., priority 2013, dated 2017)

Target: T1, recombinant human SAE enzyme (Homo sapiens, UniProt Q9UBT2)
T1 sequence (Q9UBT2 1-640): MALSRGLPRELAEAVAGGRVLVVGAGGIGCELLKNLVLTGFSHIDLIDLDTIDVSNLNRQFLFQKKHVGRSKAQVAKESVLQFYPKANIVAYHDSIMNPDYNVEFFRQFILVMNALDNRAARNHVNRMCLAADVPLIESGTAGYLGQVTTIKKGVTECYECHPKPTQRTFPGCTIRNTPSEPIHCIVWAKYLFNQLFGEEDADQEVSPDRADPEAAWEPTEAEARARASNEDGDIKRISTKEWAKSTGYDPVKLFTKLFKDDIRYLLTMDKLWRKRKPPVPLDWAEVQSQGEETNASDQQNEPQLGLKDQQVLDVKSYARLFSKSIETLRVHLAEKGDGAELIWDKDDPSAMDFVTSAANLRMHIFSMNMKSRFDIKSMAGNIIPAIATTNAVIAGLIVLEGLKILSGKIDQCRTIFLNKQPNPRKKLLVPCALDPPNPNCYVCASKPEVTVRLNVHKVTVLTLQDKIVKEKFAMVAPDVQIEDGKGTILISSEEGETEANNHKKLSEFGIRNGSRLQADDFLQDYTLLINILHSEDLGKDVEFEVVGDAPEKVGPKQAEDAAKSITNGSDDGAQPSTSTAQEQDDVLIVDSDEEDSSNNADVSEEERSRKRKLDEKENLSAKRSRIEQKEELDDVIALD
T1 sequence (Q9UBE0 1-346 partner): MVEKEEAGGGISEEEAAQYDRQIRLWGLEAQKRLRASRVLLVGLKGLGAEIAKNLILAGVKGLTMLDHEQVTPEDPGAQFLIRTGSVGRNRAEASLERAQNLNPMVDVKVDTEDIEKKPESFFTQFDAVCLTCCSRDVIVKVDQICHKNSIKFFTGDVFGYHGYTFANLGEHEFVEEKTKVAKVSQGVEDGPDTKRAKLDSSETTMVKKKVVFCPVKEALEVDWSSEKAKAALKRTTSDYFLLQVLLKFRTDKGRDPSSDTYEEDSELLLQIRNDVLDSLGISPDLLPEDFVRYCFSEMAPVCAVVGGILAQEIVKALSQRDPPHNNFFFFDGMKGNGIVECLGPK
Test: SAE HTRF Enzyme Assay
Assay type: biochemical
Settings: for IC50: class symbols A-C; for inhibition at 0.111 µM: compound concentration 0.111 μM, read-out: Percent Inhibition
How it was run: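 Recombinant human SAE (0.11 nM) transferred Sumo-Flag (0.125 μM) to Ubc9-GST (0.01 μM) with 0.5 μM ATP in HEPES pH 7.5, MgCl2, GSH, BSA; 105 min at 24° C. EDTA stop, Eu-cryptate anti-Flag and XL-APC anti-GST added, 2 h, then HTRF read. Values given as % inhibition at one concentration or IC50.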

Compound | IC50 | inhibition at 0.111 µM
NS(=O)(=O)OC[C@H]1C[C@@H](Nc2ccncc2C(=O)c2ccn(Cc3ccc(Cl)c(C(F)(F)F)c3)n2)C[C@@H]1O [Compound I-174, [(1R,2S,4R)-4-{[3-({1-[4-chloro-3-(trifluoromethyl)benzyl]-1H-pyrazol-3-yl}carbonyl)pyridin-4-yl]amino}-2-hydroxycyclopentyl]methyl sulfamate] | < 10 nM | 93%
NS(=O)(=O)OC[C@H]1C[C@@H](Nc2ncncc2C(=O)c2ccn(Cc3cccc(OC(F)(F)F)c3)n2)C[C@@H]1O [Compound I-20, [(1R,2S,4R)-2-hydroxy-4-{[5-({1-[3-(trifluoromethoxy)benzyl]-1H-pyrazol-3-yl}carbonyl)pyrimidin-4-yl]amino}cyclopentyl]methyl sulfamate] | < 10 nM | 96%
NS(=O)(=O)OC[C@H]1C[C@@H](Nc2ncncc2C(=O)c2ccn(Cc3ccc(F)c(I)c3)n2)C[C@@H]1O [Compound I-245, {(1R,2S,4R)-4-[(5-{[1-(4-fluoro-3-iodobenzyl)-1H-pyrazol-3-yl]carbonyl}pyrimidin-4-yl)amino]-2-hydroxycyclopentyl}methyl sulfamate] | < 10 nM | 100%
CSCCn1ccc(C(=O)c2cncnc2N[C@@H]2C[C@H](COS(N)(=O)=O)[C@@H](O)C2)n1 [Compound I-37, [(1R,2S,4R)-2-hydroxy-4-{[5-({1-[2-(methylsulfanyl)ethyl]-1H-pyrazol-3-yl}carbonyl)pyrimidin-4-yl]amino}cyclopentyl]methyl sulfamate] | 100 to 1000 nM | 42%
NS(=O)(=O)OC[C@H]1C[C@@H](Nc2ncncc2C(=O)c2cc(Cl)n(Cc3cccc(Br)c3)c2Cl)[C@@H](F)[C@@H]1O [Compound I-105, {(1R,2R,3R,4R)-4-[(5-{[1-(3-bromobenzyl)-2,5-dichloro-1H-pyrrol-3-yl]carbonyl}pyrimidin-4-yl)amino]-3-fluoro-2-hydroxycyclopentyl}methyl sulfamate] | 100 to 1000 nM | 18%
NS(=O)(=O)OC[C@H]1C[C@@H](Nc2ncncc2C(=O)c2ccn(Cc3sc4ccccc4c3Cl)c2)[C@@H](F)[C@@H]1O [Compound I-49, [(1R,2R,3R,4R)-4-{[5-({1-[(3-chloro-1-benzothiophen-2-yl)methyl]-1H-pyrrol-3-yl}carbonyl)pyrimidin-4-yl]amino}-3-fluoro-2-hydroxycyclopentyl]methyl sulfamate] | < 10 nM | 93%
Cc1ccnc(Cn2ccc(C(=O)c3cncnc3N[C@@H]3C[C@H](COS(N)(=O)=O)[C@@H](O)C3)n2)c1 [Compound I-162, [(1R,2S,4R)-2-hydroxy-4-{[5-({1-[(4-methylpyridin-2-yl)methyl]-1H-pyrazol-3-yl}carbonyl)pyrimidin-4-yl]amino}cyclopentyl]methyl sulfamate] | < 10 nM | 99%
NS(=O)(=O)OC[C@H]1C[C@@H](Nc2ncncc2C(=O)c2ccn(Cc3ccc(C(F)(F)F)c(F)c3)n2)[C@H](O)[C@@H]1O [Compound I-46, [(1R,2R,3S,4R)-4-{[5-({1-[3-fluoro-4-(trifluoromethyl)benzyl]-1H-pyrazol-3-yl}carbonyl)pyrimidin-4-yl]amino}-2,3-dihydroxycyclopentyl]methyl sulfamate] | < 10 nM | 96%
C#Cc1cccc([C@H](C)n2ccc(C(=O)c3cncnc3N[C@@H]3C[C@H](COS(N)(=O)=O)[C@@H](O)C3)n2)c1 (single isomer, unassigned) [Compound I-355] | < 10 nM | 99%
NS(=O)(=O)OC[C@H]1C[C@@H](Nc2ncncc2C(=O)c2ccn(Cc3ccc(Cl)c(C(F)(F)F)c3)n2)[C@@H](F)[C@@H]1O [Compound I-156, [(1R,2R,3R,4R)-4-{[5-({1-[4-chloro-3-(trifluoromethyl)benzyl]-1H-pyrazol-3-yl}carbonyl)pyrimidin-4-yl]amino}-3-fluoro-2-hydroxycyclopentyl]methyl sulfamate] | 10 to 100 nM | 90%
NS(=O)(=O)OC[C@H]1C[C@@H](Nc2ncncc2C(=O)c2ccn(Cc3ccc(F)c(F)c3)n2)[C@@H](O)[C@@H]1O [Compound I-190, {(1R,2R,3R,4R)-4-[(5-{[1-(3,4-difluorobenzyl)-1H-pyrazol-3-yl]carbonyl}pyrimidin-4-yl)amino]-2,3-dihydroxycyclopentyl}methyl sulfamate] | < 10 nM | 98%
NS(=O)(=O)OC[C@H]1C[C@@H](Nc2ncncc2C(=O)c2ccn(Cc3cccc(OC(F)F)c3)n2)[C@H](O)[C@@H]1O [Compound I-256, [(1R,2R,3S,4R)-4-{[5-({1-[3-(difluoromethoxy)benzyl]-1H-pyrazol-3-yl}carbonyl)pyrimidin-4-yl]amino}-2,3-dihydroxycyclopentyl]methyl sulfamate] | < 10 nM | 99%
C=C[S+]([O-])c1cccc(Cn2ccc(C(=O)c3cncnc3N[C@@H]3C[C@H](COS(N)(=O)=O)[C@@H](O)[C@H]3O)n2)c1 (mixture of isomers) [Compound I-74, [(1R,2R,3S,4R)-2,3-dihydroxy-4-{[5-({1-[3-((R)-vinylsulfinyl)benzyl]-1H-pyrazol-3-yl}carbonyl)pyrimidin-4-yl]amino}cyclopentyl]methyl sulfamate and [(1R,2R,3S,4R)-2,3-dihydroxy-4-{[5-({1-[3-((S)-vinylsulfinyl)benzyl]-1H-pyrazol-3-yl}carbonyl)pyrimidin-4-yl]amino}cyclopentyl]methyl sulfamate] | < 10 nM | 92%
NS(=O)(=O)OC[C@H]1C[C@@H](Nc2ncncc2C(=O)c2ccn(Cc3ccc(F)c(Cl)c3)n2)[C@@H](F)[C@@H]1O [Compound I-122, {(1R,2R,3R,4R)-4-[(5-{[1-(3-chloro-4-fluorobenzyl)-1H-pyrazol-3-yl]carbonyl}pyrimidin-4-yl)amino]-3-fluoro-2-hydroxycyclopentyl}methyl sulfamate] | < 10 nM | 99%
CN(c1ncncc1C(=O)c1ccn(Cc2cccc(Br)c2)n1)[C@@H]1C[C@H](COS(N)(=O)=O)[C@@H](O)C1 [Compound I-157, {(1R,2S,4R)-4-[(5-{[1-(3-Bromobenzyl)-1H-pyrazol-3-yl]carbonyl}pyrimidin-4-yl)(methyl)amino]-2-hydroxycyclopentyl}methyl sulfamate] | 10 to 100 nM | 67%
NS(=O)(=O)OC[C@H]1C[C@@H](Nc2ncncc2C(=O)c2ccn(Cc3ccccn3)n2)[C@H](O)[C@@H]1O [Compound I-150, {(1R,2R,3S,4R)-2,3-dihydroxy-4-[(5-{[1-(pyridin-2-ylmethyl)-1H-pyrazol-3-yl]carbonyl}pyrimidin-4-yl)amino]cyclopentyl}methyl sulfamate] | < 10 nM | 98%
NS(=O)(=O)OC[C@H]1C[C@@H](Nc2ncncc2C(=O)c2cc(Cl)n(Cc3cccc(Br)c3)c2)[C@@H](F)[C@@H]1O [Compound I-244, {(1R,2R,3R,4R)-4-[(5-{[1-(3-Bromobenzyl)-5-chloro-1H-pyrrol-3-yl]carbonyl}pyrimidin-4-yl)amino]-3-fluoro-2-hydroxycyclopentyl}methyl sulfamate] | < 10 nM | 98%
NS(=O)(=O)OC[C@H]1C[C@@H](Nc2ncncc2C(=O)c2ccn(Cc3ccc(Cl)c(C(F)(F)F)c3)n2)[C@H](O)[C@@H]1O [Compound I-34, [(1R,2R,3S,4R)-4-{[5-({1-[4-chloro-3-(trifluoromethyl)benzyl]-1H-pyrazol-3-yl}carbonyl)pyrimidin-4-yl]amino}-2,3-dihydroxycyclopentyl] methyl sulfamate] | < 10 nM | 99%
NS(=O)(=O)OC[C@H]1C[C@@H](Nc2ncncc2C(=O)c2ccn(CC3CC3)n2)[C@H](O)[C@@H]1O [Compound I-30, {(1R,2R,3S,4R)-4-[(5-{[1-(cyclopropylmethyl)-1H-pyrazol-3-yl]carbonyl}pyrimidin-4-yl)amino]-2,3-dihydroxycyclopentyl}methyl sulfamate] | 10 to 100 nM | 66%
NS(=O)(=O)OC[C@H]1C[C@@H](Nc2ncncc2C(=O)c2ccn(Cc3ccc(F)c4ccccc34)n2)[C@H](O)[C@@H]1O [Compound I-273, [(1R,2R,3S,4R)-4-{[5-({1-[(4-fluoro-1-naphthyl)methyl]-1H-pyrazol-3-yl}carbonyl)pyrimidin-4-yl]amino}-2,3-dihydroxycyclopentyl]methyl sulfamate] | < 10 nM | 98%
